Test results: ChEMBL document CHEMBL1201862, “PubChem BioAssay data set” (2004)
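The compound was tested at five concentrations on cells cultured in 96-well plates, with a 48-hour exposure period. GI50: concentration for 50% inhibition of growth.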 Active and inactive are the calls of the source. Rule as the data show it: active = GI50 up to about 1.1 µM and inactive = higher.

What was measured:
Experiment in all cases: DTP human tumour cell line panel, 48 h
[1] = tested on: 786-0
[2] = tested on: HCT-116
[3] = tested on: HOP-92
[4] = tested on: K562
[5] = tested on: KM-20L2
[6] = tested on: M14
[7] = tested on: Malme-3M
[8] = tested on: NCI-H23
[9] = tested on: SF-268
[10] = tested on: SN12C
[11] = tested on: SR
[12] = tested on: SW-620
[13] = tested on: A498
[14] = tested on: EKVX
[15] = tested on: HCT-15
[16] = tested on: SK-MEL-2

| SMILES | GI50 [1] | GI50 [2] | GI50 [3] | GI50 [4] | GI50 [5] | GI50 [6] | GI50 [7] | GI50 [8] | GI50 [9] | GI50 [10] | GI50 [11] | GI50 [12] | GI50 [13] | GI50 [14] | GI50 [15] [µM] | GI50 [16] |
| --- | --- | --- | --- | --- | --- | --- | --- | --- | --- | --- | --- | --- | --- | --- | --- | --- |
| CN(O)C(=O)c1ccccc1 | > 100 µM (inactive) | > 100 µM (inactive) | > 100 µM (inactive) | > 100 µM (inactive) | > 100 µM (inactive) | > 100 µM (inactive) | > 100 µM (inactive) | > 100 µM (inactive) | > 100 µM (inactive) | > 100 µM (inactive) | > 100 µM (inactive) | > 100 µM (inactive) | – | – | – | – |
| OCCN1CCN(CC/C=C2/c3ccccc3Sc3ccc(Cl)cc32)CC1 | – | 8.47 µM (inactive) | 8.45 µM (inactive) | 2.56 µM (inactive) | 2.07 µM (inactive) | 2.3 µM (inactive) | 5.33 µM (inactive) | 15.7 µM (inactive) | 14.6 µM (inactive) | 13.2 µM (inactive) | 12.1 µM (inactive) | 12 µM (inactive) | 14.5 µM (inactive) | 16.8 µM (inactive) | 13.4 | 14.9 µM (inactive) |
| COc1ccc(-c2onc(-c3ccc([N+](=O)[O-])cc3)c2C2=NCCCN2)cc1 | > 100 µM (inactive) | 38.9 µM (inactive) | – | 70.3 µM (inactive) | 44.3 µM (inactive) | 38.8 µM (inactive) | > 100 µM (inactive) | > 100 µM (inactive) | > 100 µM (inactive) | > 100 µM (inactive) | 45.4 µM (inactive) | > 100 µM (inactive) | – | > 100 µM (inactive) | > 100 | > 100 µM (inactive) |
| CCOC(=O)c1sc(Nc2cc(Cl)ccc2Cl)nc1C | > 100 µM (inactive) | > 100 µM (inactive) | 22.6 µM (inactive) | 42.9 µM (inactive) | 54.7 µM (inactive) | – | > 100 µM (inactive) | 34.4 µM (inactive) | > 100 µM (inactive) | 61.9 µM (inactive) | 52.5 µM (inactive) | > 100 µM (inactive) | > 100 µM (inactive) | > 100 µM (inactive) | 67.8 | 95.1 µM (inactive) |
| C=C1C2Oc3ccccc3C1N(c1ccccc1)O2 (configuration not stated) | 41.5 µM (inactive) | 20.3 µM (inactive) | – | 27.4 µM (inactive) | 37.6 µM (inactive) | 22.1 µM (inactive) | 46.7 µM (inactive) | > 10 µM (inactive) | 28.8 µM (inactive) | 23.7 µM (inactive) | 30.5 µM (inactive) | 34.8 µM (inactive) | – | 42.9 µM (inactive) | 20.8 | 9.14 µM (inactive) |
| CCCCc1c2c(nc3c1CCCC3=O)C(=O)CCC2 | > 100 µM (inactive) | > 100 µM (inactive) | > 100 µM (inactive) | > 100 µM (inactive) | > 100 µM (inactive) | > 100 µM (inactive) | > 100 µM (inactive) | > 100 µM (inactive) | > 100 µM (inactive) | > 100 µM (inactive) | > 100 µM (inactive) | > 100 µM (inactive) | > 100 µM (inactive) | > 100 µM (inactive) | > 100 | > 100 µM (inactive) |
| CCCCCCCCCCNC(=S)OC | 49.3 µM (inactive) | 37.9 µM (inactive) | 13.4 µM (inactive) | 29.2 µM (inactive) | 32.7 µM (inactive) | 63.1 µM (inactive) | 69.8 µM (inactive) | > 100 µM (inactive) | 63 µM (inactive) | 26.7 µM (inactive) | 13.7 µM (inactive) | 42.8 µM (inactive) | 46.2 µM (inactive) | 80 µM (inactive) | 24.4 | – |
| Cc1cc(N(CCC#N)CCC#N)ccc1/C=C1/N=C(c2ccccc2)N(N)C1=O | 37.6 µM (inactive) | > 100 µM (inactive) | 30 µM (inactive) | 53.5 µM (inactive) | > 100 µM (inactive) | > 100 µM (inactive) | > 100 µM (inactive) | 56.9 µM (inactive) | 60.1 µM (inactive) | > 100 µM (inactive) | – | 85.5 µM (inactive) | > 100 µM (inactive) | > 100 µM (inactive) | > 100 | > 100 µM (inactive) |
| CCN(CC)CCCNC(=O)C1COc2cc(-c3cc(=O)c4ccccc4o3)ccc2O1 (configuration not stated) | 66.8 µM (inactive) | 37.4 µM (inactive) | > 100 µM (inactive) | 36.6 µM (inactive) | 34.8 µM (inactive) | 22.1 µM (inactive) | 20.4 µM (inactive) | > 100 µM (inactive) | 42.9 µM (inactive) | 45.6 µM (inactive) | 19.9 µM (inactive) | 48.5 µM (inactive) | 48.2 µM (inactive) | > 100 µM (inactive) | 53 | – |
| Cc1ccc([N+](=O)[O-])cc1NC(=O)C(=O)Cc1occc(=O)c1O | > 100 µM (inactive) | – | > 100 µM (inactive) | > 100 µM (inactive) | > 100 µM (inactive) | – | – | – | > 100 µM (inactive) | > 100 µM (inactive) | > 100 µM (inactive) | > 100 µM (inactive) | > 100 µM (inactive) | > 100 µM (inactive) | > 100 | – |
| C1=Nc2ccccc2Cn2nncc21 | – | 35.7 µM (inactive) | 54.7 µM (inactive) | 35.2 µM (inactive) | > 100 µM (inactive) | 67.3 µM (inactive) | 63 µM (inactive) | > 100 µM (inactive) | > 100 µM (inactive) | > 100 µM (inactive) | 60.3 µM (inactive) | 34 µM (inactive) | – | 98.2 µM (inactive) | 41.8 | 78.2 µM (inactive) |
| CC(C)c1cccc2sc(NC(=O)C(=O)CC(=O)c3ccc(F)cc3)nc12 | > 100 µM (inactive) | > 100 µM (inactive) | > 100 µM (inactive) | > 100 µM (inactive) | > 100 µM (inactive) | > 100 µM (inactive) | > 100 µM (inactive) | > 100 µM (inactive) | > 100 µM (inactive) | > 100 µM (inactive) | – | > 100 µM (inactive) | > 100 µM (inactive) | > 100 µM (inactive) | > 100 | > 100 µM (inactive) |
| CC1=C(C(=O)NCc2ccccc2)C(c2ccc(C3C(C(=O)NCc4ccccc4)=C(C)NC(C)=C3C(=O)NCc3ccccc3)cc2)C(C(=O)NCc2ccccc2)=C(C)N1 | 15.6 µM (inactive) | 3.02 µM (inactive) | 17.8 µM (inactive) | 5.93 µM (inactive) | 13.9 µM (inactive) | 11.8 µM (inactive) | 14.4 µM (inactive) | 14.7 µM (inactive) | 15.1 µM (inactive) | 6.5 µM (inactive) | 2.3 µM (inactive) | 10.2 µM (inactive) | 17.7 µM (inactive) | 14.9 µM (inactive) | 16.1 | 18.4 µM (inactive) |
| CC(C)(C)OC(=O)NC(Cc1ccccc1)C(=S)N1CCCC1 (configuration not stated) | > 100 µM (inactive) | > 100 µM (inactive) | 31.7 µM (inactive) | 78.3 µM (inactive) | > 100 µM (inactive) | > 100 µM (inactive) | > 100 µM (inactive) | 48.8 µM (inactive) | > 100 µM (inactive) | > 100 µM (inactive) | – | > 100 µM (inactive) | > 100 µM (inactive) | 52.6 µM (inactive) | 75.5 | > 100 µM (inactive) |
